# Measurements as given in patent publication US20030027835A1 (priority 1999, published 2003).
# Where a name gives a salt, the structure may show the parent alone.
# Key:
# [1] = tested on: rabbit corneal reflex; test: corneal reflex testing in rabbits (local anesthetic effect); type: in vivo
# Text: FIG. 4: Local anesthetic effect of TMB (A) and lidocaine (B) as determined in the rabbit corneal reflex. The values represent the median of percentage of inhibition of corneal reflex calculated for each set of 10 stimulations. The x axis represents time (in minutes) following instillations.*P<0.05; **P<0.01 compared with the control group treated with the vehicle (Mann-Whitney U test).
# White New-Zealand male rabbits (CEGAV, Les Hauts Noës, Saint Mars d'Egrenne, France) weighing 1.9-2.7 kg were used. Animals were housed individually in cages placed in an air-conditioned (17-21° C.) animal house kept between 45% and 65% relative humidity and with an artificial day/night cycle (12 h-12 h) with light on at 7.30 am.
# Test substances are administered as solutions in sterile water (Baxter, Maurepas, France). The concentrations of test substances are expressed as percentage (weight/volume) of active compound (base form). Each test substance at each concentration is tested on the two eyes of 5 animals (i.e. 10 measurements per substance and per concentration). On the day of the study, animals are placed in restraint cages in a quiet room. Twenty to 30 minutes later, a first measurement of the corneal sensitivity is performed. Any animal presenting a partial or complete corneal insensitivity or any ocular lesion before administration is excluded from the study. Immediately after the first measurement, 2×50 μl of test substances or their vehicle are applied to the cornea. The two instillations were undertaken on each eye at a one-minute interval. Corneal sensitivity is subsequently measured at 5, 10, 20, 30, 40, 50 and 60 minutes following the instillations, and then at 2, 3 and 4 hours after the instillations. Corneal sensitivity is measured by touching gently the center of the cornea with a loop-shape nylon yarn (0.3 mm diameter). For each measurement, this operation is repeated 10 times at regular 2 second intervals. The number of stimulations producing a corneal reflex is noted for each set and for each eye.
# Results are expressed as percentage of inhibition of the corneal reflex calculated for each set of 10 stimulations:
# % inhibition of corneal reflex=10-(number of stimulations inducing a corneal reflex)×10
# For each experimental group, median values are determined. The effects of test compounds are compared with those of the vehicle using a Mann-Withney non-parametric U test at each time of measurement. Areas under curves are calculated over the first 60-minute period following instillation for each animal and each concentration by the trapezoidal method of Bourget et al., 1993. The relative potency of TMB) is compared to that of lidocaine hydrochloride from respective mean areas under curves using a covariance analysis.
# [2] = tested on: PGE2-induced hyperalgesia; test: PGE2-induced hyperalgesia in the rat (Randall and Selitto test)
# [3] = tested on: sodium currents in rat dorsal root ganglia (DRG) neurons; type: cell-based
structure (smiles),measurement,setting,value
"CCC(COC(=O)c1cc(OC)c(OC)c(OC)c1)(c1ccccc1)N(C)C.O=C(O)/C=C\C(=O)O (racemic) [Trimebutine, 2-dimethylamino-2-phenylbutyl 3,4,5-trimethoxybenzoate hydrogen maleate]",duration of local anesthetic effect,[1]; 0.1% concentration,20 min
same,potency relative to lidocaine,[1]; comparison of areas under the curve over first 60 min,17 fold
same,duration of complete local anesthesia,[1]; instillation of 0.3% or 1%,more than 60 min
same,concentration giving first significant local anesthetic effects,"[1]; rabbit cornea, instillation",0.1%
same,% of analgesic activity,[2]; Trimebutine 100 mg/kg s.c. (T2 of FIG. 5),27%
same,blocking rate kon,[3],35-40 10^−3 s^−1 μM^−1
"CN1CC[C@]23c4c5ccc(O)c4O[C@H]2[C@@H](O)C=C[C@H]3[C@H]1C5 [Morphine, morphine]",% of analgesic activity,"[2]; Morphine 0.3 mg/kg s.c., 30 min before test (T1 of FIG. 5)",22%
same,% of analgesic activity,[2]; Morphine 3 mg/kg s.c. (M3 of FIG. 6),64%
"CCN(CC)CC(=O)Nc1c(C)cccc1C [lidocaine, lidocaine hydrochloride]",duration of complete local anesthetic effect,[1]; 6% concentration,25 min
same,inhibition of corneal reflex,"[1]; 6% concentration, 60 min after instillation",no more inhibition
same,local anesthetic activity,[1]; up to the concentration of 0.3%,inactive
